Several values for one entry are separate records, joined by “and”; a condition that tells them apart may be missing. Identical values can stand only once.
Settings: Liquid, Vibrating tube method

CCCCC(=O)OCC(COC(=O)CCCC)(COC(=O)CCCC)COC(=O)CCCC [pentaerythritol tetrapentanoate]
Settings | mass density
283.15 K, 33510 kPa | 1045.5 kg/m3
283.15 K, 33550 kPa | 1045.6 kg/m3
283.15 K, 33599 kPa | 1045.6 kg/m3
283.15 K, 33639 kPa | 1045.6 kg/m3
283.15 K, 33681 kPa | 1045.6 kg/m3
283.15 K, 33731 kPa | 1045.6 kg/m3
283.15 K, 33772 kPa | 1045.7 kg/m3
283.15 K, 33815 kPa | 1045.7 kg/m3
283.15 K, 33865 kPa | 1045.8 kg/m3
283.15 K, 33908 kPa | 1045.8 kg/m3
283.15 K, 33951 kPa | 1045.8 kg/m3
283.15 K, 34004 kPa | 1045.7 kg/m3
283.15 K, 34048 kPa | 1045.8 kg/m3
283.15 K, 34093 kPa | 1045.7 kg/m3
283.15 K, 34144 kPa | 1045.8 kg/m3
283.15 K, 34173 kPa | 1046 kg/m3
283.15 K, 34198 kPa | 1045.9 kg/m3
283.15 K, 34220 kPa | 1046 kg/m3
283.15 K, 34242 kPa | 1045.8 kg/m3
283.15 K, 34265 kPa | 1045.9 kg/m3
283.15 K, 34290 kPa | 1045.9 kg/m3
283.15 K, 34312 kPa | 1046 kg/m3
283.15 K, 34335 kPa | 1046 kg/m3
283.15 K, 34364 kPa | 1045.9 kg/m3
283.15 K, 34387 kPa | 1045.9 kg/m3
283.15 K, 34410 kPa | 1046 kg/m3
283.15 K, 34438 kPa | 1046 kg/m3
283.15 K, 34461 kPa | 1046 kg/m3
283.15 K, 34485 kPa | 1046 kg/m3
283.15 K, 34516 kPa | 1046.1 kg/m3
283.15 K, 34542 kPa | 1046 kg/m3
283.15 K, 34572 kPa | 1046.1 kg/m3
283.15 K, 34604 kPa | 1046 kg/m3
283.15 K, 34620 kPa | 1046.1 kg/m3
283.15 K, 34636 kPa | 1046 kg/m3
283.15 K, 34638 kPa | 1046.3 kg/m3
283.15 K, 34639 kPa | 1046.1 kg/m3
283.16 K, 25316 kPa | 1041.3 kg/m3
303.15 K, 106.42 kPa | 1010.9 kg/m3
303.15 K, 106.59 kPa | 1010.8 kg/m3 and 1010.9 kg/m3
303.15 K, 106.6 kPa | 1010.9 kg/m3 and 1010.8 kg/m3
303.15 K, 106.76 kPa | 1010.9 kg/m3
303.15 K, 106.77 kPa | 1010.9 kg/m3
303.15 K, 106.94 kPa | 1010.9 kg/m3 and 1010.8 kg/m3
303.15 K, 107.11 kPa | 1010.9 kg/m3
303.15 K, 107.29 kPa | 1010.9 kg/m3
303.15 K, 108.17 kPa | 1010.9 kg/m3
303.15 K, 109.2 kPa | 1010.9 kg/m3
303.15 K, 110.59 kPa | 1010.9 kg/m3
303.15 K, 112.86 kPa | 1010.8 kg/m3
303.15 K, 117.2 kPa | 1011 kg/m3
303.15 K, 123.99 kPa | 1010.9 kg/m3
303.15 K, 133.19 kPa | 1010.9 kg/m3
303.15 K, 144.48 kPa | 1010.9 kg/m3
303.15 K, 156.14 kPa | 1010.9 kg/m3
303.15 K, 171.79 kPa | 1010.8 kg/m3
303.15 K, 193.18 kPa | 1011 kg/m3
303.15 K, 228.98 kPa | 1011 kg/m3
303.15 K, 269.29 kPa | 1010.9 kg/m3
303.15 K, 314.67 kPa | 1011 kg/m3
303.15 K, 395.83 kPa | 1011.2 kg/m3
303.15 K, 513.49 kPa | 1011.2 kg/m3
303.15 K, 630.95 kPa | 1011.3 kg/m3
303.15 K, 647.46 kPa | 1011.3 kg/m3
303.15 K, 648.16 kPa | 1011.3 kg/m3
303.15 K, 649.02 kPa | 1011.3 kg/m3
303.15 K, 649.71 kPa | 1011.3 kg/m3
303.15 K, 650.58 kPa | 1011.3 kg/m3
303.15 K, 651.45 kPa | 1011.3 kg/m3
303.15 K, 652.32 kPa | 1011.2 kg/m3
303.15 K, 652.67 kPa | 1011.3 kg/m3
303.15 K, 653.36 kPa | 1011.3 kg/m3
303.15 K, 654.41 kPa | 1011.3 kg/m3
303.15 K, 654.92 kPa | 1011.2 kg/m3
303.15 K, 655.97 kPa | 1011.2 kg/m3
303.15 K, 657.2 kPa | 1011.2 kg/m3
303.15 K, 657.72 kPa | 1011.4 kg/m3
303.15 K, 658.58 kPa | 1011.3 kg/m3
303.15 K, 659.27 kPa | 1011.1 kg/m3
303.15 K, 660.31 kPa | 1011.3 kg/m3
303.15 K, 661.18 kPa | 1011.3 kg/m3
303.15 K, 661.53 kPa | 1011.3 kg/m3
303.15 K, 662.58 kPa | 1011.2 kg/m3
303.15 K, 664.14 kPa | 1011.4 kg/m3
303.15 K, 666.75 kPa | 1011.3 kg/m3
303.15 K, 667.79 kPa | 1011.3 kg/m3
303.15 K, 668.65 kPa | 1011.3 kg/m3
303.15 K, 669.35 kPa | 1011.2 kg/m3
303.15 K, 670.22 kPa | 1011.2 kg/m3
303.15 K, 675.62 kPa | 1011.2 kg/m3
303.15 K, 675.96 kPa | 1011.2 kg/m3
303.15 K, 676.49 kPa | 1011.4 kg/m3
303.15 K, 677.36 kPa | 1011.3 kg/m3
303.15 K, 678.05 kPa | 1011.3 kg/m3
303.15 K, 679.27 kPa | 1011.2 kg/m3
303.15 K, 680.14 kPa | 1011.3 kg/m3
303.15 K, 681.01 kPa | 1011.3 kg/m3
303.15 K, 681.71 kPa | 1011.3 kg/m3
303.15 K, 682.41 kPa | 1011.2 kg/m3
303.15 K, 685.7 kPa | 1011.3 kg/m3
303.15 K, 686.57 kPa | 1011.3 kg/m3
303.15 K, 688.83 kPa | 1011.2 kg/m3
303.15 K, 689.69 kPa | 1011.2 kg/m3
303.15 K, 690.56 kPa | 1011.4 kg/m3
303.15 K, 691.43 kPa | 1011.3 kg/m3
303.15 K, 692.3 kPa | 1011.4 kg/m3
303.15 K, 693.35 kPa | 1011.3 kg/m3
303.15 K, 694.56 kPa | 1011.3 kg/m3
303.15 K, 695.08 kPa | 1011.3 kg/m3
303.15 K, 696.12 kPa | 1011.3 kg/m3
303.15 K, 697.16 kPa | 1011.3 kg/m3
303.15 K, 698.02 kPa | 1011.3 kg/m3
303.15 K, 698.55 kPa | 1011.3 kg/m3
303.15 K, 699.59 kPa | 1011.3 kg/m3
303.15 K, 703.59 kPa | 1011.2 kg/m3
303.15 K, 704.11 kPa | 1011.3 kg/m3
303.15 K, 705.15 kPa | 1011.3 kg/m3
303.15 K, 706.21 kPa | 1011.3 kg/m3
303.15 K, 707.07 kPa | 1011.3 kg/m3
303.15 K, 708.28 kPa | 1011.3 kg/m3
303.15 K, 709.15 kPa | 1011.2 kg/m3
303.15 K, 710.02 kPa | 1011.3 kg/m3
303.15 K, 711.24 kPa | 1011.3 kg/m3
303.15 K, 711.93 kPa | 1011.4 kg/m3
303.15 K, 712.98 kPa | 1011.3 kg/m3
303.15 K, 713.84 kPa | 1011.2 kg/m3
303.15 K, 714.72 kPa | 1011.3 kg/m3
303.15 K, 715.75 kPa | 1011.3 kg/m3
303.15 K, 716.62 kPa | 1011.3 kg/m3
303.15 K, 717.84 kPa | 1011.3 kg/m3
303.15 K, 719.05 kPa | 1011.4 kg/m3
303.15 K, 720.1 kPa | 1011.3 kg/m3
303.15 K, 720.79 kPa | 1011.3 kg/m3
303.15 K, 721.67 kPa | 1011.2 kg/m3
303.15 K, 722.71 kPa | 1011.3 kg/m3
303.15 K, 723.76 kPa | 1011.3 kg/m3
303.15 K, 724.45 kPa | 1011.3 kg/m3
303.15 K, 725.83 kPa | 1011.4 kg/m3
303.15 K, 726.87 kPa | 1011.3 kg/m3
303.15 K, 727.92 kPa | 1011.4 kg/m3
303.15 K, 728.79 kPa | 1011.3 kg/m3
303.15 K, 730.17 kPa | 1011.2 kg/m3
303.15 K, 730.7 kPa | 1011.4 kg/m3
303.15 K, 731.58 kPa | 1011.3 kg/m3
303.15 K, 733.65 kPa | 1011.3 kg/m3
303.15 K, 734.7 kPa | 1011.3 kg/m3
303.15 K, 735.91 kPa | 1011.2 kg/m3
303.15 K, 736.78 kPa | 1011.2 kg/m3
303.15 K, 737.82 kPa | 1011.3 kg/m3
303.15 K, 739.04 kPa | 1011.4 kg/m3
303.15 K, 740.26 kPa | 1011.3 kg/m3
303.15 K, 741.3 kPa | 1011.3 kg/m3
303.15 K, 742.16 kPa | 1011.4 kg/m3
303.15 K, 743.2 kPa | 1011.3 kg/m3
303.15 K, 744.08 kPa | 1011.2 kg/m3
303.15 K, 745.47 kPa | 1011.3 kg/m3
303.15 K, 746.33 kPa | 1011.3 kg/m3
303.15 K, 747.56 kPa | 1011.3 kg/m3
303.15 K, 748.76 kPa | 1011.4 kg/m3
303.15 K, 749.63 kPa | 1011.3 kg/m3
303.15 K, 750.5 kPa | 1011.4 kg/m3

Reference: the NIST ThermoML archive (doi:10.1021/je060271a)
